Assay results taken from the NIST ThermoML archive (doi:10.1021/je400835u).

Assay: xn = mol fraction of the nth substance listed
Details: 100 kPa, Liquid; for viscosity: Falling or rolling sphere viscometry; for mass density: Vibrating tube method

CCCCC1CCCCC1 [butylcyclohexane] + CCCCCCCCCC
Details	mass density, 293.15 K [kg/m3]	mass density, 298.15 K [kg/m3]	mass density, 303.15 K [kg/m3]	mass density, 308.15 K [kg/m3]	mass density, 313.15 K [kg/m3]	viscosity, 293.15 K [mPa·s]	viscosity, 298.15 K [mPa·s]	viscosity, 303.15 K [mPa·s]	viscosity, 308.15 K [mPa·s]	viscosity, 313.15 K [mPa·s]
x1 = 0.0508	733.71	729.95	726.17	722.37	718.56	0.944	0.879	0.82	0.767	0.72
x1 = 0.1001	736.83	733.07	729.29	725.5	721.69	0.956	0.89	0.831	0.778	0.73
x1 = 0.1992	743.19	739.43	735.66	731.87	728.07	0.984	0.914	0.853	0.798	0.748
x1 = 0.2994	749.74	745.99	742.22	738.44	734.64	1.014	0.94	0.877	0.819	0.768
x1 = 0.3996	756.42	752.67	748.91	745.13	741.34	1.047	0.969	0.903	0.842	0.789
x1 = 0.5002	763.27	759.53	755.76	751.99	748.2	1.084	1.003	0.932	0.869	0.813
x1 = 0.5955	769.88	766.14	762.38	758.61	754.83	1.122	1.037	0.963	0.897	0.84
x1 = 0.6988	777.19	773.45	769.7	765.93	762.15	1.166	1.078	1.001	0.931	0.871
x1 = 0.8012	784.6	780.86	777.11	773.34	769.57	1.21	1.121	1.039	0.966	0.902
x1 = 0.8998	791.88	788.15	784.4	780.63	776.86	1.253	1.159	1.074	0.998	0.932
x1 = 0.9497	795.63	791.89	788.14	784.37	780.61	1.275	1.178	1.091	1.013	0.946
x1 = 1	799.44	795.7	791.95	788.19	784.41	1.296	1.196	1.107	1.027	0.958
